Reference: US20090298820A1, “3-SUBSTITUTED-1H-PYRROLO[2,3-B]PYRIDINE AND 3-SUBSTITUTED-1H-PYRROLO[3,2-B]PYRIDINE COMPOUNDS, THEIR USE AS MTOR KINASE AND PI3 KINASE INHIBITORS, AND THEIR SYNTHESES” (Wyeth, priority 2008, published 2009)

Columns and labels:
Format in all cases: biochemical
[1] = biological target: PI3Kα (Homo sapiens, UniProt P42336); experiment: PI3K-alpha fluorescence polarization assay; settings: read-out: PI3Kα Median IC50
[2] = biological target: PI3Kγ (Homo sapiens, UniProt P48736); experiment: PI3K-gamma fluorescence polarization assay; settings: read-out: PI3Kγ Median IC50
[3] = biological target: mTOR (Homo sapiens, UniProt P42345); experiment: mTOR enzyme assay (DELFIA format, His6-S6K substrate); settings: read-out: mTOR Kinase Median IC50

Chain of PI3Kα (P42336 whole entry, species assumed): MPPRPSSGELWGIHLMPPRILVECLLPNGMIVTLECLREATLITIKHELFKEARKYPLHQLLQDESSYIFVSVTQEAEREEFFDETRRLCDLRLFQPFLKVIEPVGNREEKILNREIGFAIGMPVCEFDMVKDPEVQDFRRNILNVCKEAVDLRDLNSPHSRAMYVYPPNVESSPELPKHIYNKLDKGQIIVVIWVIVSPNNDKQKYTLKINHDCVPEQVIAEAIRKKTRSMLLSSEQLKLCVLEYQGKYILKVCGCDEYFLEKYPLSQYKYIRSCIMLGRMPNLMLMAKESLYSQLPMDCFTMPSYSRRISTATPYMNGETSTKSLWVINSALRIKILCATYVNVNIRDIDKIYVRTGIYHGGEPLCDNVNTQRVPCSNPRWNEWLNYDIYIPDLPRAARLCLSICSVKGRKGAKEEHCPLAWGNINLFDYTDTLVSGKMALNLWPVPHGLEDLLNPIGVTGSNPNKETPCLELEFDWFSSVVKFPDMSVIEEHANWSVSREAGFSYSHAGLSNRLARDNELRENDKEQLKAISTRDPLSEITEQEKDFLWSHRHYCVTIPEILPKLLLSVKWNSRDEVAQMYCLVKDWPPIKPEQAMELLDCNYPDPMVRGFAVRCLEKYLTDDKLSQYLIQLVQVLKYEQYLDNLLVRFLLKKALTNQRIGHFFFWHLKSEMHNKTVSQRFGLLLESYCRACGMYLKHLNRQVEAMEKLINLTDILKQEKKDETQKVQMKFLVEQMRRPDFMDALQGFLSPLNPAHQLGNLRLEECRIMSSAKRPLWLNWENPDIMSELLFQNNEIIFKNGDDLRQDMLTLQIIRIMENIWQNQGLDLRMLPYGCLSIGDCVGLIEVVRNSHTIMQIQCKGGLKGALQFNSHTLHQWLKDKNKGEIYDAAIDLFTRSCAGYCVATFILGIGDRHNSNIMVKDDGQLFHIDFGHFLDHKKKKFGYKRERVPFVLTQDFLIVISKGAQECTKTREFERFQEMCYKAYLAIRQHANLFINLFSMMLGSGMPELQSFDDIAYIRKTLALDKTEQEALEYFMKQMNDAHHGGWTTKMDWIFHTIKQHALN
Chain of PI3Kα (P27986 whole entry partner, species assumed): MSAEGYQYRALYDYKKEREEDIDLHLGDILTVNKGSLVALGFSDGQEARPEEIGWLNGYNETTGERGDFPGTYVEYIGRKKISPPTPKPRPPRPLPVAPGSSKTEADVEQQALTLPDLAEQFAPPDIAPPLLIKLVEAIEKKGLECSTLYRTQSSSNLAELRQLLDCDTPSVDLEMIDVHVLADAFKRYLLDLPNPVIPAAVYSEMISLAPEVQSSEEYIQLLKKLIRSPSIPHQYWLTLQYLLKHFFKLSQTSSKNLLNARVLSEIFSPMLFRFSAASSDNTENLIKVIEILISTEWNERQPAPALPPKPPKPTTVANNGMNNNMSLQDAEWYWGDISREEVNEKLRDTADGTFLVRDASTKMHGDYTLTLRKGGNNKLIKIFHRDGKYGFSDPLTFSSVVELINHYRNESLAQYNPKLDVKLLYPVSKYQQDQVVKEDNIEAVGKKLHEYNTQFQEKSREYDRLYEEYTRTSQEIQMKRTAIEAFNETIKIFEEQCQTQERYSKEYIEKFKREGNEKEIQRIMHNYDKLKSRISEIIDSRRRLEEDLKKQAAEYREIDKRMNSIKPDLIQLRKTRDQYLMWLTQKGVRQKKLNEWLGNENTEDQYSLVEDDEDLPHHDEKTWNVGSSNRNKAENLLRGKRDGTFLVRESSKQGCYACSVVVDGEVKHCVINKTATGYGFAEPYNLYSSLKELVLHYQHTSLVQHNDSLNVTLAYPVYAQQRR
Chain of PI3Kγ (P48736 whole entry, species assumed): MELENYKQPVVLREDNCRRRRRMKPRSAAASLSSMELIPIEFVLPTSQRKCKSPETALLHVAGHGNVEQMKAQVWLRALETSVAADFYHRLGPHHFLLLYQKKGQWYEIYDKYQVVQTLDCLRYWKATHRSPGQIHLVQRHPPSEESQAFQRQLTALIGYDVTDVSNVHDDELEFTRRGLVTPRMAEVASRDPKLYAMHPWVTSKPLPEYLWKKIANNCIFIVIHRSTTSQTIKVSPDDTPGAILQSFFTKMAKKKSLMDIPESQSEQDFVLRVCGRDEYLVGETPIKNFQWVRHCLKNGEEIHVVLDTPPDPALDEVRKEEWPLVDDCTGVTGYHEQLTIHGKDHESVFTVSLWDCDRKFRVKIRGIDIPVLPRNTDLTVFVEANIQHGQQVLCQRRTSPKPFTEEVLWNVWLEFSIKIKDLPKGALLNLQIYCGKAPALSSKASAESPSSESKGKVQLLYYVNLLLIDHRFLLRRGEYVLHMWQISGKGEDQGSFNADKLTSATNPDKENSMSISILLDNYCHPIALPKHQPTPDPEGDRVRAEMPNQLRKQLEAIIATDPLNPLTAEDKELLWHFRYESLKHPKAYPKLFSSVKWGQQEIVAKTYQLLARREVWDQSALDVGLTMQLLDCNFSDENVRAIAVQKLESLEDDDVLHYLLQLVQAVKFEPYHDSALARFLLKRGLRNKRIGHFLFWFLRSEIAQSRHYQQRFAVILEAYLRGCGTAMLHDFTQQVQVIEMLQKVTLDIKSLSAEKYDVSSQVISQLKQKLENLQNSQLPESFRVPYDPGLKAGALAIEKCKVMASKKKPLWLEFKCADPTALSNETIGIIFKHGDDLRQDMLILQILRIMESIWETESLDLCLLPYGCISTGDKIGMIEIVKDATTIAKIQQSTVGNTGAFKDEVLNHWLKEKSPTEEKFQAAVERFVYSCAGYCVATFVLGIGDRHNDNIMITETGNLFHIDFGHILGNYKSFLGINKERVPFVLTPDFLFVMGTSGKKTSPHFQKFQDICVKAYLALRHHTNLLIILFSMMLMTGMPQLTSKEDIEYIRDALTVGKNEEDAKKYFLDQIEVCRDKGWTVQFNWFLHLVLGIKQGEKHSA

| SMILES | IC50 [1] [nM] | IC50 [2] [nM] | IC50 [3] [nM] |
| --- | --- | --- | --- |
| Cn1cc(C=C2Oc3ccc(NC(=O)Nc4cccnc4)cc3C2=O)c2c(N3CCC(C(=O)NC4CCS(=O)(=O)C4)CC3)ccnc21 (stereo not shown) [Compound 212, N-(1,1-dioxidotetrahydrothiophen-3-yl)-1-[1-methyl-3-({3-oxo-5-[(pyridin-3-ylcarbamoyl)amino]-1-benzofuran-2(3H)-ylidene}methyl)-1H-pyrrolo[2,3-b]pyridin-4-yl]piperidine-4-carboxamide] | 7450 | 5230 | 5.7 |
| CN(C(=O)C1CCN(c2ccnc3c2c(C=C2Oc4ccc(NC(=O)Nc5cccnc5)cc4C2=O)cn3C)CC1)C1CCOCC1 [Compound 213, N-methyl-1-[1-methyl-3-({3-oxo-5-[(pyridin-3-ylcarbamoyl)amino]-1-benzofuran-2(3H)-ylidene}methyl)-1H-pyrrolo[2,3-b]pyridin-4-yl]-N-(tetrahydro-2H-pyran-4-yl)piperidine-4-carboxamide] | 8360 | 7220 | 18.9 |
| CN(C(=O)C1CCN(c2ccnc3c2c(C=C2Oc4ccc(NC(=O)Nc5cccnc5)cc4C2=O)cn3C)CC1)[C@@H]1CCNC1 [Compound 206, N-methyl-1-[1-methyl-3-({3-oxo-5-[(pyridin-3-ylcarbamoyl)amino]-1-benzofuran-2(3H)-ylidene}methyl)-1H-pyrrolo[2,3-b]pyridin-4-yl]-N-[(3R)-pyrrolidin-3-yl]piperidine-4-carboxamide] | > 10000 | > 10000 | 47 |
| CN1CCN(C(=O)C2CCN(c3ccnc4c3c(/C=C3\Oc5ccc(NC(=O)Nc6cccnc6)cc5C3=O)cn4C)CC2)CC1 [Compound 252, 1-{(2Z)-2-[(1-methyl-4-{4-[(4-methylpiperazin-1-yl)carbonyl]piperidin-1-yl}-1H-pyrrolo[2,3-b]pyridin-3-yl)methylidene]-3-oxo-2,3-dihydro-1-benzofuran-5-yl}-3-pyridin-3-ylurea] | 4600 | 1250 | 7 |
| Cn1cc(/C=C2\Oc3cccc(O)c3C2=O)c2c(-c3ccc(C(=O)NCCO)cc3)ccnc21 [Compound 182, N-(2-hydroxyethyl)-4-{3-[(Z)-(4-hydroxy-3-oxo-1-benzofuran-2(3H)-ylidene)methyl]-1-methyl-1H-pyrrolo[2,3-b]pyridin-4-yl}benzamide] | – | – | 1.6 |
| O=C1C(=Cc2cn(CCCN3CCOCC3)c3ncccc23)Oc2cc(O)cc(O)c21 [Compound 7, 4,6-dihydroxy-2-{[1-(3-morpholin-4-ylpropyl)-1H-pyrrolo[2,3-b]pyridin-3-yl]methylene}-1-benzofuran-3(2H)-one] | 921 | > 10000 | – |
| CN1CCN(CCCn2cc(C=C3Oc4cc(O)cc(O)c4C3=O)c3cccnc32)CC1 [Compound 6, 4,6-dihydroxy-2-({1-[3-(4-methylpiperazin-1-yl)propyl]-1H-pyrrolo[2,3-b]pyridin-3-yl}methylene)-1-benzofuran-3(2H)-one] | 5890 | > 10000 | – |
| Cn1cc(/C=C2\Oc3cc(O)cc(O)c3C2=O)c2c(-c3ccc(OC(F)(F)F)cc3)ccnc21 [Compound 15, (2Z)-4,6-dihydroxy-2-({1-methyl-4-[4-(trifluoromethoxy)phenyl]-1H-pyrrolo[2,3-b]pyridin-3-yl}methylene)-1-benzofuran-3(2H)-one] | – | – | 1 |
| Cn1cc(/C=C2\Oc3ccc(NC(=O)Nc4ccc(Cl)nc4)cc3C2=O)c2c(N3CC4CCC(C3)O4)ccnc21 [Compound 299, 1-(6-chloropyridin-3-yl)-3-[(2Z)-2-{[1-methyl-4-(8-oxa-3-azabicyclo[3.2.1]oct-3-yl)-1H-pyrrolo[2,3-b]pyridin-3-yl]methylidene}-3-oxo-2,3-dihydro-1-benzofuran-5-yl]urea] | – | – | 69 |
| Cn1cc(/C=C2\Oc3ccc(NC(=O)NC4CCCCC4)cc3C2=O)c2c(N3CC4CCC(C3)O4)ccnc21 [Compound 236, 1-cyclohexyl-3-[(2Z)-2-{[1-methyl-4-(8-oxa-3-azabicyclo[3.2.1]oct-3-yl)-1H-pyrrolo[2,3-b]pyridin-3-yl]methylidene}-3-oxo-2,3-dihydro-1-benzofuran-5-yl]urea] | 1470 | 2970 | – |
| O=C1C(=Cc2cn(CCCN3CCN(CCO)CC3)c3ncccc23)Oc2c1ccc(O)c2O [Compound 10, 6,7-dihydroxy-2-[(1-{3-[4-(2-hydroxyethyl)piperazin-1-yl]propyl}-1H-pyrrolo[2,3-b]pyridin-3-yl)methylene]-1-benzofuran-3(2H)-one] | > 10000 | > 10000 | – |
| Cn1cc(C=C2Oc3c(ccc(O)c3O)C2=O)c2cccnc21 [Compound 2, 6,7-dihydroxy-2-[(1-methyl-1H-pyrrolo[2,3-b]pyridin-3-yl)methylene]-1-benzofuran-3(2H)-one] | 2340 | – | – |
| COc1ccc2c(n1)c(C=C1Oc3c(ccc(O)c3O)C1=O)cn2C [Compound 4, 6,7-dihydroxy-2-[(5-methoxy-1-methyl-1H-pyrrolo[3,2-b]pyridin-3-yl)methylene]-1-benzofuran-3(2H)-one] | 676 | 8500 | – |
| Cn1cc(/C=C2\Oc3cccc(O)c3C2=O)c2c(-c3ccc(C(=O)N4CCOCC4)cc3)ccnc21 [Compound 128, (2Z)-4-hydroxy-2-({1-methyl-4-[4-(morpholin-4-ylcarbonyl)phenyl]-1H-pyrrolo[2,3-b]pyridin-3-yl}methylene)-1-benzofuran-3(2H)-one] | – | – | 0.5 |
| CN(C)S(=O)(=O)c1ccc(-c2ccnc3c2c(/C=C2\Oc4cccc(O)c4C2=O)cn3C)cc1 [Compound 180, 4-{3-[(Z)-(4-hydroxy-3-oxo-1-benzofuran-2(3H)-ylidene)methyl]-1-methyl-1H-pyrrolo[2,3-b]pyridin-4-yl}-N,N-dimethylbenzenesulfonamide] | – | – | 2.9 |
| CN(C)C(=O)CN(C)C(=O)C1CCN(c2ccnc3c2c(C=C2Oc4ccc(NC(=O)Nc5cccnc5)cc4C2=O)cn3C)CC1 [Compound 201, N-[2-(dimethylamino)-2-oxoethyl]-N-methyl-1-[1-methyl-3-({3-oxo-5-[(pyridin-3-ylcarbamoyl)amino]-1-benzofuran-2(3H)-ylidene}methyl)-1H-pyrrolo[2,3-b]pyridin-4-yl]piperidine-4-carboxamide] | – | – | 7.7 |

Further lines, results first:

| IC50 [1] [nM] | IC50 [2] [nM] | IC50 [3] [nM] | SMILES |
| --- | --- | --- | --- |
| 10 | 16 | 24 | Cn1cc(/C=C2\Oc3cccc(O)c3C2=O)c2c(-c3ccc(S(=O)(=O)NCc4ccccc4)cc3)ccnc21 [Compound 90, N-benzyl-4-{3-[(Z)-(4-hydroxy-3-oxo-1-benzofuran-2(3H)-ylidene)methyl]-1-methyl-1H-pyrrolo[2,3-b]pyridin-4-yl}benzenesulfonamide] |
| 154 | 263 | 3.2 | Cn1cc(/C=C2\Oc3cccc(O)c3C2=O)c2c(-c3ccc(CN4CCOCC4)cc3)ccnc21 [Compound 130, (2Z)-4-hydroxy-2-({1-methyl-4-[4-(morpholin-4-ylmethyl)phenyl]-1H-pyrrolo[2,3-b]pyridin-3-yl}methylene)-1-benzofuran-3(2H)-one] |
| 135 | 9170 | – | O=C1C(=Cc2cn(CCCN3CCOCC3)c3ncccc23)Oc2c1ccc(O)c2O [Compound 9, 6,7-dihydroxy-2-{[1-(3-morpholin-4-ylpropyl)-1H-pyrrolo[2,3-b]pyridin-3-yl]methylene}-1-benzofuran-3(2H)-one] |
| 503 | 638 | 39 | CN(C)C(=O)C1CCN(c2ccnc3c2c(/C=C2\Oc4ccc(NC(=O)Nc5ccc(OC6CCOCC6)nc5)cc4C2=O)cn3C)CC1 [Compound 267, N,N-dimethyl-1-(1-methyl-3-{(Z)-[3-oxo-5-({[6-(tetrahydro-2H-pyran-4-yloxy)pyridin-3-yl]carbamoyl}amino)-1-benzofuran-2(3H)-ylidene]methyl}-1H-pyrrolo[2,3-b]pyridin-4-yl)piperidine-4-carboxamide] |
| 8 | 49 | 1.4 | Cn1cc(/C=C2\Oc3cc(O)cc(O)c3C2=O)c2c(-c3cccc(C(=O)N4CCCC4)c3)ccnc21 [Compound 79, (2Z)-4,6-dihydroxy-2-({1-methyl-4-[3-(pyrrolidin-1-ylcarbonyl)phenyl]-1H-pyrrolo[2,3-b]pyridin-3-yl}methylene)-1-benzofuran-3(2H)-one] |
| 173 | 645 | 2.8 | CN1CCN(c2ccnc3c2c(/C=C2\Oc4cccc(O)c4C2=O)cn3C)CC1 [Compound 47, (2Z)-4-hydroxy-2-{[1-methyl-4-(4-methylpiperazin-1-yl)-1H-pyrrolo[2,3-b]pyridin-3-yl]methylene}-1-benzofuran-3(2H)-one] |
| 506 | > 10000 | 685 | COc1ccc2c(n1)c(C=C1Oc3cc(O)cc(O)c3C1=O)cn2C [Compound 3, 4,6-dihydroxy-2-[(5-methoxy-1-methyl-1H-pyrrolo[3,2-b]pyridin-3-yl)methylene]-1-benzofuran-3(2H)-one] |
| 44 | 200 | – | CN1CCN(c2ccnc3c2c(/C=C2\Oc4cc(O)cc(O)c4C2=O)cn3C)CC1 [Compound 44, (2Z)-4,6-dihydroxy-2-{[1-methyl-4-(4-methylpiperazin-1-yl)-1H-pyrrolo[2,3-b]pyridin-3-yl]methylene}-1-benzofuran-3(2H)-one] |
| 525 | – | 1200 | O=C1C(=Cc2c[nH]c3ncccc23)Oc2cc(O)cc(O)c21 [Compound 11, 4,6-dihydroxy-2-(1H-pyrrolo[2,3-b]pyridin-3-ylmethylene)-1-benzofuran-3(2H)-one] |
| 203 | 9000 | – | CN1CCN(CCCn2cc(C=C3Oc4c(ccc(O)c4O)C3=O)c3cccnc32)CC1 [Compound 8, 6,7-dihydroxy-2-({1-[3-(4-methylpiperazin-1-yl)propyl]-1H-pyrrolo[2,3-b]pyridin-3-yl}methylene)-1-benzofuran-3(2H)-one] |
